Source: ChEMBL document CHEMBL1201862, “PubChem BioAssay data set” (2004)
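Results reflect a 48-hour exposure of cells in 96-well plates to compound at five concentrations. GI50 marks 50% less growth.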 The source made the active and inactive calls. Cut-off read from the data, not from the text of the source: active = GI50 up to about 1.1 µM and inactive = higher.

Tests used:
Test in all cases: inhibition of tumour cell growth, NCI panel, 48 h
[1] = test system: SF-268
[2] = test system: NCI-H460
[3] = test system: 786-0
[4] = test system: COLO 205
[5] = test system: OVCAR-5
[6] = test system: SF-295
[7] = test system: CCRF-CEM
[8] = test system: UO-31
[9] = test system: HOP-62
[10] = test system: TK-10
[11] = test system: HT-29
[12] = test system: SK-MEL-2
[13] = test system: Malme-3M
[14] = test system: IGROV-1
[15] = test system: A498
[16] = test system: CAKI-1
[17] = test system: ACHN
[18] = test system: SF-539
[19] = test system: NCI-H522
[20] = test system: SK-OV-3

Measured: GI50

CC1=CC(=O)C2=C(C)CCC3C(C)C(=O)OC3C12 (stereo not given)
inactive: [1] > 100 µM | [2] > 100 µM | [3] > 100 µM | [4] > 100 µM | [5] > 100 µM | [6] > 100 µM | [7] > 100 µM | [8] > 100 µM | [9] > 100 µM | [10] > 100 µM | [11] > 100 µM | [12] > 100 µM | [13] > 100 µM | [14] > 100 µM | [15] > 100 µM | [16] > 100 µM | [17] > 100 µM | [18] > 100 µM | [19] > 100 µM | [20] > 100 µM

ClC(Cl)=C(Cl)C1(Cl)CC1COCc1ccccc1 (stereo not given)
inactive: [1] 43.3 µM | [2] 38.5 µM | [3] 44.3 µM | [4] 25.2 µM | [5] 32.6 µM | [6] 25.5 µM | [7] 22.3 µM | [8] 25.8 µM | [9] 25.9 µM | [10] 60.8 µM | [11] 24.8 µM | [12] 17.8 µM | [13] 18.4 µM | [14] 47.6 µM | [15] 52.4 µM | [16] 65.8 µM | [17] 39.4 µM | [18] 51.6 µM | [19] 16.5 µM | [20] 39.4 µM

Cc1ccc(Nc2c(C#N)[n+]([O-])c3cc(Cl)ccc3[n+]2[O-])cc1
inactive: [1] 28.4 µM | [2] 9.31 µM | [3] 4.8 µM | [4] 18.4 µM | [5] > 100 µM | [6] 13.6 µM | [7] 3.23 µM | [8] 82.4 µM | [9] 43.1 µM | [10] 29 µM | [11] 11.2 µM | [12] > 100 µM | [13] 79.3 µM | [14] 15.5 µM | [15] > 100 µM | [16] 42 µM | [17] 11.2 µM | [18] 26.6 µM | [19] 11.4 µM | [20] 61.7 µM

N#CC1CCCCCCCCCCC(=O)N(CCCl)C1=O (stereo not given)
inactive: [1] > 100 µM | [2] > 100 µM | [3] > 100 µM | [4] > 100 µM | [5] > 100 µM | [6] > 100 µM | [7] > 100 µM | [8] > 100 µM | [9] > 100 µM | [10] > 100 µM | [11] > 100 µM | [12] > 100 µM | [13] > 100 µM | [14] > 100 µM | [15] > 100 µM | [16] > 100 µM | [17] > 100 µM | [18] > 100 µM | [19] > 100 µM | [20] > 100 µM
